Measurements: patent publication US20170105999A1, “METHOD FOR TREATING DRUG RESISTANT CANCER” (NATIONAL YANG MING UNIVERSITY, priority 2014, published 2017)

What was measured:
CL97 [1] = experiment: Clonogenic assay; assay type: cell-based; conditions: CL97, adenocarcinoma
Method: (§1) Tested cells were seeded respectively in 6 well plates with 10^4 cells per well for 14 days. […] After the treatments, cells were washed with PBS, and the colonies were fixed with fix solution (methanol: acetic acid=3:1) and stained with 0.5% crystal violet in methanol. After removing the crystal violet carefully and rinse with tap water, the colonies were counted manually.

A549 = experiment: Clonogenic assay; assay type: cell-based; conditions: A549, adenocarcinoma
Method: as §1

H441 = experiment: Tumor spheroid (sphere formation) assay; assay type: cell-based, human; conditions: H441, adenocarcinoma
CL152 [2] = experiment: Cytotoxicity, sulforhodamine B (SRB) assay; assay type: cell-based; conditions: read-out: IC50 for prochlorperazine metabolites, CL152 parental cells
Method: (§2) Cells were plated in 96-well plates at a density of 2000 cells per well in triplicate. The cells were treated on the third day (to ensure proper plating efficiency and vitality) to indicated agents for 48 hrs. […] Cytotoxicity was assessed using the sulforhodamine B (SRB) assay (23). Briefly, the medium was discarded, and the adherent cells were fixed by 100 μl of cold 10% trichioroacetic acid (w/v) in each well for 1 h at 4° C. After fixation, cells were stained with 100 μl/well of 0.4% (w/v, in 1% acetic acid) SRB solution for 30 min at room temperature, and then washed 5 times with 1% acetic acid. After air-drying, 100 μl of 10 mM Tris base was added to each well and the absorbance was read at 530 nm. Cytotoxicity is expressed as the percent of cells in drug treated wells relative to number of cells in the solvent only control (set to 100%). Each experiment was performed independently at least 2 times in triplicate and cytotoxicity is given as means ±SD.
(§3) A549, A549-ON, CL97, CL141, HCC827, and H441 were lung adenocarcinoma cell lines. CL152, H2170, and H226 were squamous cell carcinoma cell lines. Cell viability was determined by SRB assay. […] To determine whether side population (SP) cells, which represent a cell population with CSC characteristics, exist in NSCLC cell lines, we stained the cells with the fluorescent dye, Hoechst 33342, and analyzed the cells with flow cytometry.

CL141 [3] = experiment: Cytotoxicity, sulforhodamine B (SRB) assay; assay type: cell-based; conditions: read-out: IC50 for prochlorperazine metabolites, CL141 parental cells
Method: as §2, §3

[4] = system: lung squamous cell carcinoma; experiment: Case study, lung squamous cell carcinoma patient; assay type: in vivo, human; conditions: person; prochlorperazine added to Tarceva (erlotinib); CT after 3 months
[5] = system: lung adenocarcinoma with EGFR-L858R mutation; experiment: Case study, lung adenocarcinoma patient; assay type: in vivo, human; conditions: person; prochlorperazine along with pemetrexed; last followed-up CT
PANC-1 = experiment: Tumor spheroid (sphere formation) assay; assay type: cell-based; conditions: PANC-1, pancreatic cancer
H226 = experiment: Tumor spheroid (sphere formation) assay; assay type: cell-based; conditions: H226, squamous cell carcinoma
HT29 = experiment: Tumor spheroid (sphere formation) assay; assay type: cell-based; conditions: HT29, colorectal adenocarcinoma
NSCLC cells = experiment: Side population analysis in NSCLC cells; assay type: cell-based; conditions: 48 hours of incubation at 2.5, 5 and 10 μM
Method: Single-cell suspensions of cells were detached from dishes with Trypsin-EDTA (Invitrogen) and suspended at 1×10^6 cells/mL in Hank's balanced salt solution ([…]) supplemented with 3% fetal calf serum and 10 mM Hepes. These cells were then incubated at 37° C. for 90 minutes with 20 μg/mL Hoechst 33342 (Sigma Chemical, St. Louis, Mo.). […] After 90 minutes incubation with indicated drugs, the cells were centrifuged immediately for 5 minutes at 300 g and 4° C. and resuspended in ice-cold HBSS, The cells were kept on ice to inhibit efflux of the Hoechst dye, and 1 μg/mL propidium iodide (PI, BD) were added to discriminate dead cells. Finally, these cells were filtered through a 40 μm cell strainer (BD) to obtain single-suspension cells. Cell dual-wavelength analysis and purification were performed on a dual-laser FACS Vantage SE (BD). Hoechst 33342 can be excited at 355 nm UV light and emitted blue fluorescence with a 450/20 band-pass (BP) filter and red fluorescence with a 675 nm edge filter long-pass (EFLP). […]
as §3, with “CL152, H2170, and H226 were squamous cell carcinoma cell lines.” left out

CL97 [6] = experiment: Side population analysis by flow cytometry (Hoechst 33342); assay type: cell-based; conditions: CL97, adenocarcinoma
Method: (§4) Single-cell suspensions of cells were detached from dishes with Trypsin-EDTA (Invitrogen) and suspended at 1×10^6 cells/mL in Hank's balanced salt solution ([…]) supplemented with 3% fetal calf serum and 10 mM Hepes. These cells were then incubated at 37° C. for 90 minutes with 20 μg/mL Hoechst 33342 (Sigma Chemical, St. Louis, Mo.). […] After 90 minutes incubation with indicated drugs, the cells were centrifuged immediately for 5 minutes at 300 g and 4° C. and resuspended in ice-cold HBSS, The cells were kept on ice to inhibit efflux of the Hoechst dye, and 1 μg/mL propidium iodide (PI, BD) were added to discriminate dead cells. Finally, these cells were filtered through a 40 μm cell strainer (BD) to obtain single-suspension cells. Cell dual-wavelength analysis and purification were performed on a dual-laser FACS Vantage SE (BD). Hoechst 33342 can be excited at 355 nm UV light and emitted blue fluorescence with a 450/20 band-pass (BP) filter and red fluorescence with a 675 nm edge filter long-pass (EFLP). A 610 nm dichroic mirror short-pass (DMSP) was used to separate the emission wavelengths. PI-positive (dead) cells were excluded from the analysis.
as §3

CL152 [7] = experiment: as above; assay type: cell-based; conditions: CL152, squamous cell carcinoma
Method: as §4, §3

CL141 [8] = experiment: as above; assay type: cell-based; conditions: CL141, adenocarcinoma
Method: as §4, §3

CL141 [9] = experiment: Clonogenic assay; assay type: cell-based; conditions: CL141, adenocarcinoma
Source text: […] […] After the treatments, cells were washed with PBS, and the colonies were fixed with fix solution (methanol: acetic acid=3:1) and stained with 0.5% crystal violet in methanol. After removing the crystal violet carefully and rinse with tap water, the colonies were counted manually.

CL152 [10] = experiment: Tumor spheroid (sphere formation) assay
Method: (§5) In brief, single cells were plated in 6-well ultralow attachment plates (Coming Inc.) at a density of 2,000 cells/mL in tumor spheroid culture medium, DMEM/F12 supplemented with 1% N2 Supplement (Invitrogen), 10 ng/mL basic fibroblast growth factor (Sigma-Aldrich), 10 ng/mL epidermal growth factor (Invitrogen) with 1% penicillin/streptomycin (Invitrogen) at 37° C. in a humidified atmosphere of 95% air and 5% CO2. Cells were cultured twice per week. When passaged, tumor spheres were harvested. Spheroids were dissociated with TrypLE™ (Invitrogen). Spheroids cell counting using the Trypan Blue Exclusion method.

[11] = system: NCI-H441 cells expressing firefly luciferase; experiment: NCI-H441 firefly luciferase tail vein tumor model, drug combination test; assay type: in vivo, mice; conditions: prochlorperazine 1 mg/kg + pemetrexed 1 mg/kg; p<0.05
Method: In the first drug combination test, NCI-H441 cells expressing firefly luciferase (6×10^5 cells/injection) were injected into NOD/SCID mice (4-6 week of age) via the lateral tail vein for tumor establishment. […] Tumor burden from different groups were recorded by caliper. The change in tumor size was expressed as in fold change and plotted over time. Subsequently, we performed another set of drug combination test. […] For lung adenocarcinoma, the standard drug combination is pemetrexed and cisplatin whereas are used gemcitabine and cisplatin for lung squamous carcinoma. […] CL97 cancer cells (1.5×10^6 cells per injection) were injected subcutaneously into NOD/SCID mice to establish in viva tumor model.
In the drug combination test ([…]), NCI-H441 cells expressing firefly luciferase ([…] cells/injection) were injected into NOD/SCID mice (4-6 week of age) via the lateral tail vein for tumor establishment.

H1299 = experiment: Tumor spheroid (sphere formation) assay
Method: as §5

CL97 [12] = experiment: Tumor spheroid (sphere formation) assay; assay type: cell-based
NSCLC cell lines = conditions: conclusion in words
Method: as §2, §3

SMILES: CN1CCN(CCCN2c3ccccc3Sc3ccc(Cl)cc32)CC1 [prochlorperazine]
- Clonogenic assay (CL97 [1]): 5 to 10 µM
- Clonogenic assay (A549): 5 to 10 µM
- Sphere formation (H441): 0 to 2.5 µM
- IC50 (CL152 [2]): 10 to 20 µM
- IC50 (CL141 [3]): 10 to 20 µM
- CT follow-up of disease [4]: stable disease
- tumor and pleural effusion on CT [5]: reduced significantly
- Sphere formation (PANC-1): 10 to 20 µM
- Sphere formation (H226): 0 to 5 µM
- Sphere formation (HT29): 0 to 2.5 µM
- proportion of SP cells (NSCLC cells): dose-dependently decease
- Side population (CL97 [6]): <5 µM
- Side population (CL152 [7]): <5 µM
- Side population (CL141 [8]): >10 µM
- Clonogenic assay (CL141 [9]): 5 to 10 µM
- Sphere formation (CL152 [10]; CL152, squamous cell carcinoma): 0 to 5 µM
- combination effect with gemcitabine, sphere-formation assay (CL152 [10]; CL152 spheres, in combination with gemcitabine): synergistic effect
- tumor inhibitory effect, combination with pemetrexed [11]: significantly better tumor inhibitory effect than any other groups
- sphere-forming ability (H1299; H1299): suppressed the sphere-forming ability
- Sphere formation (H1299; H1299, large cell carcinoma): 0 to 5 µM
- spheres number, combination with cisplatin (H1299; H1299, combination with cisplatin vs prochlorperazine or cisplatin alone): lower spheres number
- Sphere formation (CL97 [12]; CL97, adenocarcinoma): 0 to 2.5 µM
- number of spheres (CL97 [12]; CL97 sphere cells, 1, 2.5, 5 and 10 μM, 48 hours, concentration-dependent): reduced the number of spheres
- number of sphere cells, co-treatment (CL97 [12]; CL97 spheres, co-treatment with gefitinib vs gefitinib alone, 48 hours): significantly decreased the number of sphere cells
- cytotoxic effects in NSCLC cells (NSCLC cell lines): low or minimal cytotoxic effects
